The target of this test is T1, CDK2/Cyclin E complex (Homo sapiens, UniProt P24941).
T1 construct: purchased Eurofins 14-475
The test can be described thus: CDK2/Cyclin E fluorescence-based microfluidic mobility shift assay (CDK2 Biochemical Caliper Assay). To be noted: read-out: Biochemical CDK2/CyclinE Caliper IC50. An outline of the steps:
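Wild-type CDK2/Cyclin E was preincubated with compound and ATP for 30 min at RT before the 5-FAM-QSPKKG peptide was added. Final concentrations were 0.1 nM enzyme, 2000 uM ATP, 1.5 uM peptide and 1% DMSO. After 20 hr at RT and EDTA stop, substrate conversion was read by microfluidic mobility shift over an 11-point, 3-fold dilution series.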

Experimental findings from US20240190855A1 (Relay Therapeutics, Inc., priority 2021, published 2024) are described below.

A value given as a limit tells only on which side of the number the result lay.

`COCc1cc(C(=O)Nc2cc([C@H]3C[C@@H](CC(=O)NC(C)C)C3)[nH]n2)n(C)n1` [Example 360]: the IC50 lay within 1000 to 100000 nM.
For `COCc1cc(C(=O)Nc2cc([C@H]3C[C@H](CC(=O)NC(C)C)C3)[nH]n2)n(C)n1` [Example 361], the IC50 is 1000 to 100000 nM.
Take `Cc1cc(CC(=O)Nc2cc([C@H]3C[C@@H](COc4nscc4C4CC4)C3)[nH]n2)on1` [Example 368]: the IC50 was not above 100 nM.
For `Cc1cc(CC(=O)Nc2cc([C@H]3C[C@H](COc4nscc4C4CC4)C3)[nH]n2)on1` [Example 369], the IC50 lay within 1000 to 100000 nM.
Next, `Cc1ccc(O[C@@H]2CC[C@H](c3cc(NC(=O)Cc4cc(C)no4)n[nH]3)C2)nn1` [Example 397]: 250 to 1000 nM; `Cc1cc(CC(=O)Nc2cc([C@H]3C[C@@H](Oc4nnccc4C(C)C)CO3)[nH]n2)on1` [Example 406]: not above 100 nM; `Cc1cc(CC(=O)Nc2cc([C@@H]3C[C@H](Oc4nnccc4C(C)C)CO3)[nH]n2)on1` [Example 407]: not above 100 nM.
With `CC(C)c1ccnnc1O[C@H]1CC[C@@H](c2cc(Nc3nccc4ncsc34)n[nH]2)CC1` [Example 412], the IC50 is not above 100 nM.
Regarding `Cc1cc(CC(=O)Nc2cc(C3CCCN3)[nH]n2)on1` (stereo not drawn) [Example 416], the IC50 fell in the range of 1000 to 100000 nM.
Next, `CC(C)NC(=O)O[C@@H]1CC[C@H](c2cc(Nc3ncnc4ncsc34)n[nH]2)C1` [Example 425]: not above 100 nM; `CC(C)NC(=O)O[C@H]1CC[C@@H](c2cc(Nc3ncnc4ncsc34)n[nH]2)C1` [Example 426]: not above 100 nM; `COCc1cc(C(=O)Nc2cc([C@H]3C[C@@H](COc4nnccc4C(C)C)C3)[nH]n2)n(C)n1` [Example 429]: not above 100 nM.
Next, `COCc1cc(C(=O)Nc2cc([C@H]3C[C@H](COc4nnccc4C(C)C)C3)[nH]n2)n(C)n1` [Example 430]: 1000 to 100000 nM; `Cc1cc(CC(=O)Nc2cc([C@H]3C[C@@H](COc4nnccc4C(C)C)C3)[nH]n2)on1` [Example 431]: not above 100 nM; `Cc1cc(CC(=O)Nc2cc([C@H]3C[C@H](COc4nnccc4C(C)C)C3)[nH]n2)on1` [Example 432]: 100 to 250 nM.
With `CC(C)NC(=O)O[C@H]1CO[C@@H](c2cc(Nc3nccc4ncsc34)n[nH]2)C1` [Example 433], the IC50 was not above 100 nM.
Consider `CC(C)NC(=O)O[C@@H]1CO[C@H](c2cc(Nc3nccc4ncsc34)n[nH]2)C1` [Example 434], for which the IC50 fell in the range of 100 to 250 nM.
For `CC(C)c1ccnnc1O[C@H]1C[C@@H](c2cc(Nc3nccc4ncsc34)n[nH]2)C1` [Example 435], the IC50 is not above 100 nM.
`CC(C)c1ccnnc1O[C@@H]1CC[C@H](c2cc(Nc3nccc4ncsc34)n[nH]2)C1` [Example 436]: the IC50 is not above 100 nM.
For the compound `CC(C)c1ccnnc1O[C@H]1CC[C@@H](c2cc(Nc3nccc4ncsc34)n[nH]2)C1` [Example 437], the IC50 is not above 100 nM.
Regarding `CC(C)c1ccnnc1OC[C@H]1C[C@@H](c2cc(Nc3nccc4ncsc34)n[nH]2)C1` [Example 438], the IC50 is not above 100 nM.
Next, `CC(C)c1ccnnc1OC[C@H]1C[C@H](c2cc(Nc3nccc4ncsc34)n[nH]2)C1` [Example 439]: 1000 to 100000 nM; `COCc1cc(C(=O)Nc2cc([C@H]3C[C@@H](COc4nscc4C4CC4)C3)[nH]n2)n(C)n1` [Example 454]: not above 100 nM.
For `COCc1cc(C(=O)Nc2cc([C@H]3C[C@H](COc4nscc4C4CC4)C3)[nH]n2)n(C)n1` [Example 455], the IC50 fell in the range of 1000 to 100000 nM.
Next, `CC(C)NC(=O)OC[C@H]1C[C@@H](c2cc(Nc3nccc4ncsc34)n[nH]2)C1` [Example 456]: not above 100 nM; `CC(C)NC(=O)OC[C@H]1C[C@H](c2cc(Nc3nccc4ncsc34)n[nH]2)C1` [Example 457]: 250 to 1000 nM; `COCc1cc(C(=O)Nc2cc([C@H]3C[C@@H](Oc4nnccc4C(C)C)CO3)[nH]n2)n(C)n1` [Example 458]: not above 100 nM.
Next, `COCc1cc(C(=O)Nc2cc([C@@H]3C[C@H](Oc4nnccc4C(C)C)CO3)[nH]n2)n(C)n1` [Example 459]: not above 100 nM; `COCc1cc(C(=O)Nc2cc([C@H]3C[C@@H](COC(=O)NC(C)C)C3)[nH]n2)n(C)n1` [Example 460]: not above 100 nM; `COCc1cc(C(=O)Nc2cc([C@H]3C[C@H](COC(=O)NC(C)C)C3)[nH]n2)n(C)n1` [Example 461]: 1000 to 100000 nM.
On to `CC(C)c1ccnnc1O[C@H]1CO[C@@H](c2cc(Nc3nccn4nccc34)n[nH]2)C1` [Example 464], for which the IC50 is not above 100 nM.
As for `CC(C)c1ccnnc1O[C@@H]1CO[C@H](c2cc(Nc3nccn4nccc34)n[nH]2)C1` [Example 465], the IC50 is not above 100 nM.
Next, `CC(C)c1ccnnc1OC[C@H]1C[C@@H](c2cc(Nc3nccn4nccc34)n[nH]2)C1` [Example 488]: not above 100 nM; `CC(C)c1ccnnc1OC[C@H]1C[C@H](c2cc(Nc3nccn4nccc34)n[nH]2)C1` [Example 489]: 250 to 1000 nM; `COCc1cc2c(Nc3cc([C@H]4C[C@@H](Oc5nnccc5C(C)C)CO4)[nH]n3)nccn2n1` [Example 496]: not above 100 nM.
Next, `COCc1cc2c(Nc3cc([C@@H]4C[C@H](Oc5nnccc5C(C)C)CO4)[nH]n3)nccn2n1` [Example 497]: not above 100 nM; `Cc1ncccc1OC[C@H]1C[C@@H](c2cc(Nc3nccn4nccc34)n[nH]2)C1` [Example 513]: 100 to 250 nM; `Cc1ncccc1OC[C@H]1C[C@H](c2cc(Nc3nccn4nccc34)n[nH]2)C1` [Example 514]: 1000 to 100000 nM.
`COCc1cc(C(=O)Nc2cc([C@H]3C[C@]4(CN(CC(C)C)C(=O)N4)C3)[nH]n2)n(C)n1` [Example 515]: the IC50 was in the range of 1000 to 100000 nM.
With `COCc1cc(C(=O)Nc2cc([C@H]3C[C@@]4(CN(CC(C)C)C(=O)N4)C3)[nH]n2)n(C)n1` [Example 516], the IC50 was 250 to 1000 nM.
With `COCc1cc2c(Nc3cc([C@H]4C[C@@H](COc5nnccc5C(C)C)C4)[nH]n3)nccn2n1` [Example 519], the IC50 is not above 100 nM.
Consider `COCc1cc2c(Nc3cc([C@H]4C[C@H](COc5nnccc5C(C)C)C4)[nH]n3)nccn2n1` [Example 520], for which the IC50 lay in the range of 1000 to 100000 nM.
In the case of `Cc1ncccc1O[C@@H]1CO[C@H](c2cc(Nc3nccn4nccc34)n[nH]2)C1` [Example 521], the IC50 lay in the range of 1000 to 100000 nM.
On to `Cc1ncccc1O[C@H]1CO[C@@H](c2cc(Nc3nccn4nccc34)n[nH]2)C1` [Example 522], for which the IC50 lay within 250 to 1000 nM.
For `CC(C)c1ccnnc1O[C@H]1CO[C@@H](c2cc(Nc3nccc4ncsc34)n[nH]2)C1` [Example 523], the IC50 was not above 100 nM.
As to `CC(C)c1ccnnc1O[C@@H]1CO[C@H](c2cc(Nc3nccc4ncsc34)n[nH]2)C1` [Example 524], the IC50 is not above 100 nM.
Take `COCc1cc(C(=O)Nc2cc([C@H]3C[C@@](C)(CC(=O)NC(C)C)C3)[nH]n2)n(C)n1` [Example 532]: the IC50 lay within 1000 to 100000 nM.
For `COCc1cc(C(=O)Nc2cc([C@H]3C[C@](C)(CC(=O)NC(C)C)C3)[nH]n2)n(C)n1` [Example 533], the IC50 fell in the range of 1000 to 100000 nM.
As to `c1cncc(OC[C@H]2C[C@@H](c3cc(Nc4nccn5nccc45)n[nH]3)C2)c1` [Example 536], the IC50 is not above 100 nM.
For `c1cncc(OC[C@H]2C[C@H](c3cc(Nc4nccn5nccc45)n[nH]3)C2)c1` [Example 537], the IC50 is 1000 to 100000 nM.
As for `COCc1cc(C(=O)Nc2cc([C@H]3C[C@@H]4[C@H](C3)[C@H]4C(=O)N(C)C)[nH]n2)n(C)n1` [Example 540], the IC50 lay within 1000 to 100000 nM.
As to `COCc1cc(C(=O)Nc2cc([C@H]3C[C@]4(C3)NC(=O)N(CC(C)C)C4=O)n[nH]2)n(C)n1` [Example 541], the IC50 was in the range of 1000 to 100000 nM.
Next, `COCc1cc2c(Nc3cc([C@H]4C[C@@H](OC(=O)NC(C)C)CO4)[nH]n3)nccn2n1` [Example 544]: not above 100 nM.
`COCc1cc2c(Nc3cc([C@@H]4C[C@H](OC(=O)NC(C)C)CO4)[nH]n3)nccn2n1` [Example 545]: the IC50 is not above 100 nM.
Next, `COCc1cc(C(=O)Nc2cc(N3CC(COC(=O)NC(C)C)C3)[nH]n2)n(C)n1` [Example 558]: 1000 to 100000 nM; `COCc1cc2c(Nc3cc([C@H]4C[C@H](COC(=O)NC(C)C)C4)[nH]n3)nccn2n1` [Example 560]: 100 to 250 nM; `COCc1cc(C(=O)Nc2cc([C@H]3C[C@@H](COc4cccnc4)C3)[nH]n2)n(C)n1` [Example 561]: 1000 to 100000 nM.
On to `COCc1cc(C(=O)Nc2cc([C@H]3C[C@H](COc4cccnc4)C3)[nH]n2)n(C)n1` [Example 562], for which the IC50 is 1000 to 100000 nM.
`CC(C)c1[nH]ncc1OC[C@H]1C[C@@H](c2cc(Nc3nccn4nccc34)n[nH]2)C1` [Example 582]: the IC50 was not above 100 nM.
As for `CC(C)c1[nH]ncc1OC[C@H]1C[C@H](c2cc(Nc3nccn4nccc34)n[nH]2)C1` [Example 583], the IC50 is 1000 to 100000 nM.
Next, `COCc1cc2c(Nc3cc([C@H]4C[C@@H](COc5cccnc5)C4)[nH]n3)nccn2n1` [Example 586]: 250 to 1000 nM.
Turning to `COCc1cc(C(=O)Nc2cc([C@H]3C[C@@H](COc4cn[nH]c4C(C)C)C3)[nH]n2)n(C)n1` [Example 587], the IC50 was in the range of 100 to 250 nM.
With `COCc1cc2c(Nc3cc([C@H]4C[C@@H](COc5cn[nH]c5C(C)C)C4)[nH]n3)nccn2n1` [Example 588], the IC50 was not above 100 nM.
As for `CC(C)NC(=O)OC[C@H]1C[C@@H](c2cc(Nc3ccc4c(n3)C(C)(C)NC4=O)n[nH]2)C1` [Example 589], the IC50 is not above 100 nM.
Turning to `COCc1cc2c(Nc3cc([C@H]4C[C@@H](OC(=O)NC5(C)CC5)CO4)[nH]n3)nccn2n1` [Example 619], the IC50 was not above 100 nM.
Next, `COCc1cc2c(Nc3cc([C@@H]4C[C@H](OC(=O)NC5(C)CC5)CO4)[nH]n3)nccn2n1` [Example 620]: not above 100 nM.
